Like-named read-outs stand apart in the source and are kept apart here. Marks after values point to notes of the source that are not given here. Ends that are not written are not given here.
How the values were obtained:
[1] = Rat body weight during oral gavage
Protocol: A hyperlipidemic animal model was established as follows: Forty healthy adult male Sprague-Dawley (SD) rats, weighing 200±20 g, were used. A blank control group of 10 rats was fed a standard diet. The remaining 30 rats constituted the modeling group and were fed a high-fat diet (commercially available, 60% fat content).
The blank control group and the model control group were administered an equal volume of 0.9% physiological saline by oral gavage. The other two groups were administered aqueous solutions of the test samples by oral gavage.
During the gavage period, the blank control group was fed a standard diet daily, while the other groups continued receiving the high-fat diet. All rats had free access to water. Oral gavage was performed once daily for 4 consecutive weeks, and body weights were measured regularly.

[2] = tested on: hyperlipidemic rats; test: Serum lipid levels in hyperlipidemic rat model after oral gavage; format: in vivo, Sprague-Dawley (SD) rats; details: after 4 weeks of oral gavage, high-fat diet rats
Protocol: After 1-2 weeks of feeding the high-fat diet to the modeling group, blood was collected from the blank control group and the modeling group without fasting (from the inner canthus or tail). Serum was separated as soon as possible after blood collection, and serum levels of Total Cholesterol (TC), Triglycerides (TG), Low-Density Lipoprotein Cholesterol (LDL-C), and High-Density Lipoprotein Cholesterol (HDL-C) were measured. The modeling group was randomly divided into 3 groups (model control group, cholesterol-lowering peptide group, lovastatin control group). No significant differences in TC, TG, LDL-C, and HDL-C were observed among these groups.
All rats had free access to water.

[3] = rat, in vivo, po

## CC[C@H](C)C(=O)O[C@H]1C[C@@H](C)C=C2C=C[C@H](C)[C@H](CC[C@@H]3C[C@@H](O)CC(=O)O3)[C@H]21 [Lovastatin]
[1]; Day 14 and Day 28 of administration, compared among groups
  effect on rat body weight: no significant effect
[1]; high-fat diet rats, oral gavage once daily, Day 0
  Body Weight (g) At Day 0 of Administration: 200.78 g
[1]; high-fat diet rats, oral gavage once daily, Day 14
  Body Weight (g) At Day 14 of Administration: 221.16 g
[1]; high-fat diet rats, oral gavage once daily, Day 28
  Body Weight (g) At Day 28 of Administration: 236.39 g
[2]
  High-Density Lipoprotein Cholesterol (HDL-C): 0.54**
  Low-Density Lipoprotein Cholesterol (LDL-C): 0.32**
  Total Cholesterol (TC): 3.06**
  Triglycerides (TG): 0.98**

## FFFPF [FFFPF]
[3]
  Body Weight (g) At Day 0 of Administration: 200.89 g
  Body Weight (g) At Day 14 of Administration: 220.75 g
  Body Weight (g) At Day 28 of Administration: 237.35 g
